US7175872B2, “Pyridinium-Betain compounds for use as taste modulators” (Nestec S.A., priority 2002, dated 2007)
Where a name gives a salt, the structure may show the parent alone.

Columns and labels:
Type in all cases: in vivo
[1] = system: bitter taste of caffeine; assay: Bitter intensity ranking with Glypyridaine: caffeine; settings: no Glypyridaine, scale 0-5
Excerpt: Instead of working with low concentrated solutions at the bitter threshold, another series of experiments use carried out using more concentrated solutions of various bitter compounds to evaluate the bitter-blocking properties of Pyridinium-Betaines based on non-chiral amino acids. […] The bitter-reducing effect was most pronounced with L-Phenylalanine, the dipeptide H-Gly-Leu-OH, and caffeine.

[2] = system: umami taste of MSG; assay: Umami taste detection threshold of MSG/Pyridinium-Betaine mixtures (triangle test, sensory panel)
Procedure: (§1) • Sensory panel training: […] Sensory analyses were performed in a sensory panel room at 22-25° C. on three different sessions. • Taste thresholds: The taste thresholds of the tastants or mixtures containing basic tastants plus Pyridinium-Betains were determined in a triangle test using Evian® mineral water as the solvent at a defined pH ([…] and H.-D. Belitz, Z. Lebensm. Unters. Forsch. 1975, 159, 65-72). The samples (3 mL) were presented in order of increasing concentrations (serial 1:1 dilutions). The threshold values evaluated in two different sessions were averaged. […] The taste intensities of aqueous (Evian®) solutions containing a basic tastant, such as glucose and MSG, for example, in constant concentrations and the compounds of the general formula (A), for example […], in various concentrations were compared with those of a solution containing the basic tastant only. To achieve this, triangle tests were performed with two glass vials containing the basic tastant in constant concentrations, and one glass vial containing a stepwise 1:1-diluted mixture of basic […]. […] The relative taste strength (taste enhancing factor) of a mixture containing the basic […] was related to the basic tastants glucose, MSG, or other tastants, respectively, as standard substances, and was determined as the ratio of the concentrations c of iso-intensely tasting solutions of the basic tastant, such as glucose (glc), and the mixture containing tastant plus Pyridinium-Betain, […])=[…] […] This taste enhancing effect is illustrated in examples. Pyridinium-Betaines not only enhance the sweet taste perception, but also the umami taste.

[3] = system: sweet taste of sucrose; assay: Sweet taste detection threshold of sucrose/Pyridinium-Betaine mixtures (triangle test, sensory panel); parameters: key to Threshold decrease: fold decrease of sweet threshold vs pure sucrose
Procedure: (§2) • Sensory panel training: […] Sensory analyses were performed in a sensory panel room at 22-25° C. on three different sessions. • Taste thresholds: The taste thresholds of the tastants or mixtures containing basic tastants plus Pyridinium-Betains were determined in a triangle test using Evian® mineral water as the solvent at a defined pH ([…] and H.-D. Belitz, Z. Lebensm. Unters. Forsch. 1975, 159, 65-72). The samples (3 mL) were presented in order of increasing concentrations (serial 1:1 dilutions). The threshold values evaluated in two different sessions were averaged. […] The taste intensities of aqueous (Evian®) solutions containing a basic tastant, such as glucose and MSG, for example, in constant concentrations and the compounds of the general formula (A), for example […], in various concentrations were compared with those of a solution containing the basic tastant only. To achieve this, triangle tests were performed with two glass vials containing the basic tastant in constant concentrations, and one glass vial containing a stepwise 1:1-diluted mixture of basic […]. […] The relative taste strength (taste enhancing factor) of a mixture containing the basic […] was related to the basic tastants glucose, MSG, or other tastants, respectively, as standard substances, and was determined as the ratio of the concentrations c of iso-intensely tasting solutions of the basic tastant, such as glucose (glc), and the mixture containing tastant plus Pyridinium-Betain, […])=[…] This taste enhancing effect is illustrated in examples. The sweet taste thresholds of equimolar mixtures of sweet tasting compounds and various Pyridinium-Betaines were determined by a triangle test using EVIAN® mineral water as the solvent. The sensorial evaluations were performed at different pH values. The equimolar mixture of […] and sucrose at pH 7.0 was evaluated with a 4-fold lower sweet threshold concentration than pure sucrose (Table 1).

[4] = system: sweet taste of glucose; assay: Sweet taste detection threshold of glucose/Pyridinium-Betaine mixtures (triangle test, sensory panel); settings: equimolar mixture with glucose, pH 7.0; for Threshold decrease: vs glucose in water 50.0 mmol/L
Procedure: as §2, with “1). […] is able to reduce the sweet threshold of glucose 16-fold at pH 7.0 and pH 9.0, whereas at pH 5.0 a gain the sweet taste perception […] (Table 2). […] Using the dipeptide derivative (S)-[…] as a taste-enhancer leads to a 16-fold threshold reduction compared to glucose.” for “1).”

[5] = system: salty taste of NaCl; assay: Salt taste detection threshold of NaCl/Pyridinium-Betaine mixtures (triangle test, sensory panel)
Procedure: • Sensory panel training: […] Sensory analyses were performed in a sensory panel room at 22-25° C. on three different sessions. • Taste thresholds: The taste thresholds of the tastants or mixtures containing basic tastants plus Pyridinium-Betains were determined in a triangle test using Evian® mineral water as the solvent at a defined pH ([…] and H.-D. Belitz, Z. Lebensm. Unters. Forsch. 1975, 159, 65-72). The samples (3 mL) were presented in order of increasing concentrations (serial 1:1 dilutions). The threshold values evaluated in two different sessions were averaged. […] The taste intensities of aqueous (Evian®) solutions containing a basic tastant, such as glucose and MSG, for example, in constant concentrations and the compounds of the general formula (A), for example […], in various concentrations were compared with those of a solution containing the basic tastant only. […] The relative taste strength (taste enhancing factor) of a mixture containing the basic […] was related to the basic tastants glucose, MSG, or other tastants, respectively, as standard substances, and was determined as the ratio of the concentrations c of iso-intensely tasting solutions of the basic tastant, such as glucose (glc), and the mixture containing tastant plus Pyridinium-Betain, […])=[…] […] This taste enhancing effect is illustrated in examples.

[6] = system: sweet taste of L-alanine; assay: Sweet taste detection threshold of L-alanine/Pyridinium-Betaine mixtures (triangle test, sensory panel); settings: L-alanine alone
Procedure: as §1, with “Besides the two carbohydrates,” for “Pyridinium-Betaines not only enhance”, “sweet amino acid L-alanine was also tested with […]. Again, the best impact on sweet” for “sweet”, “perception was found for” for “perception, but also”, “mixture at pH 9.0, resulting in an 8-fold lower threshold.” for “umami taste.”

[7] = umami, MSG and mixtures with Alapyridaine enantiomers (Table 9), pH not stated
[8] = sweet, vs sucrose alone (Table 10)
[9] = equimolar mixture with MSG, pH 7.0
[10] = equimolar mixture with MSG, pH 7.0, vs MSG in water 1.5 mmol/L
[11] = equimolar mixture with sucrose, pH 7.0
[12] = equimolar mixture with sucrose, pH 9.0
[13] = equimolar mixture with sucrose, pH 9.0, vs sucrose in water 12.5 mmol/L

## Cn1c(=O)c2c(ncn2C)n(C)c1=O [Caffeine, reference compound]
[1]; Caffeine 4 mmol/L water
  Bitter taste intensity: 3
[1]; Caffeine 8 mmol/L water
  Bitter taste intensity: 4.5
[1]; Caffeine 16 mmol/L water
  Bitter taste intensity: 5

## C[C@@H](C(=O)[O-])[n+]1cc(O)ccc1CO [(+)-(S)-Alapyridaine, (S)-N-(1-carboxyethyl)-3-hydroxy-6-hydroxymethyl-pyridinium inner salt]
[2]; [7]
  Detection threshold: 0.2 mmol/kg water
[3]; [8]
  Threshold decrease: 8

## OC[C@H]1O[C@@](CO)(O[C@H]2O[C@H](CO)[C@@H](O)[C@H](O)[C@H]2O)[C@@H](O)[C@@H]1O [Sucrose, sucrose, reference compound]
[3]; sucrose alone
  threshold of sucrose in water: ^aThe threshold of sucrose in water is 12.5 mmol/L.
[3]; sucrose and mixtures with Alapyridaine enantiomers (Table 10), pH not stated
  Taste quality: sweet
[3]; sweet, sucrose and mixtures with Alapyridaine enantiomers (Table 10), pH not stated
  Detection threshold: 12.5 mmol/kg water

## O=C(C[n+]1cc(O)ccc1CO)N[C@@H](Cc1ccccc1)C(=O)[O-] [(S)-GlyPhepyridaine, (S)-N-[N(1-carboxy-2-phenyl-ethyl)-carboxamido-methyl]-3-hydroxy-6-hydroxymethyl-pyridinium inner salt]
[4]
  Sweet detection threshold: 3.0 mmol/kg water
  Taste quality: sweet
  Threshold decrease: 16
[2]; [9]
  Taste quality: umami
  Umami detection threshold: 0.2 mmol/kg water
[2]; [10]
  Threshold decrease: 8.0

## N[C@@H](CCC(=O)O)C(=O)[O-].[Na+] [MSG, monosodium glutamate, reference compound]
[2]; MSG alone
  threshold of MSG in water: ^aThe threshold of MSG in water is 1.5 mmol/L.
[2]; MSG and mixtures with Alapyridaine enantiomers (Table 9), pH not stated
  Taste quality: umami
[2]; [7]
  Detection threshold: 1.5 mmol/kg water

## O=C([O-])[C@H](Cc1ccccc1)[n+]1cc(O)ccc1CO [Phepyridaine]
[5]; mixture with NaCl, pH 7.0
  Salt detection threshold: 2.0 mmol/kg water
  Taste quality: salty
[5]; mixture with NaCl, pH 7.0, vs NaCl in water 10.0 mmol/L
  Threshold decrease: 5.0
[4]
  Sweet detection threshold: 3.0 mmol/kg water
  Taste quality: sweet
  Threshold decrease: 16.0
[2]; [9]
  Taste quality: umami
  Umami detection threshold: 0.4 mmol/kg water
[2]; [10]
  Threshold decrease: 4.0
[3]; [11]
  Sweet detection threshold: 3.0 mmol/kg water
  Taste quality: sweet
[3]; equimolar mixture with sucrose, pH 7.0, vs sucrose in water 12.5 mmol/L
  Threshold decrease: 4.0
[3]; [12]
  Sweet detection threshold: 1.5 mmol/kg water
  Taste quality: sweet
[3]; [13]
  Threshold decrease: 8.0
[3]; mixture with sucrose
  concentration above which a rubber-like off-taste is imparted: above 3 mmol/kg
  concentration above which the sweetness is associated with a rubber-like taste: ^bThe sweetness is associated with a rubber-like taste in concentrations higher than 3 mmol/L.

## O=C(O)CCC(C(=O)[O-])[n+]1cc(O)ccc1CO (stereo not shown) [Glupyridaine, N-(1,3-dicarboxypropyl)-3-hydroxy-6-hydroxymethyl-pyridinium inner salt]
[2]; [9]
  Taste quality: umami
  Umami detection threshold: 0.4 mmol/kg water
[2]; [10]
  Threshold decrease: 4.0
[3]; [11]
  Sweet detection threshold: 12.0 mmol/kg water
  Taste quality: sweet
[3]; [12]
  Sweet detection threshold: 6.0 mmol/kg water
  Taste quality: sweet
[3]; [13]
  Threshold decrease: 2

## C[C@H](C(=O)[O-])[n+]1cc(O)ccc1CO [(−)-(R)-Alapyridaine, (R)-N-(1-carboxyethyl)-3-hydroxy-6-hydroxymethyl-pyridinium inner salt]
[5]; salty, vs NaCl alone (Table 11)
  Threshold decrease: did not alter the taste of the aqueous salt solution
[2]; umami, vs MSG alone (Table 9)
  Threshold decrease: does not have any taste enhancing impact
[3]; [8]
  Threshold decrease: does not alter the sweet taste perception of sucrose

## C[C@H](N)C(=O)O [L-alanine, reference compound]
[6]
  threshold of L-alanine in water: ^aThe threshold of L-alanine in water is 12.5 mmol/L.
